This passage reports IC50 results from patent US8389539B2, “Azacyclic derivatives” (Hoffman-La Roche Inc., priority 2009, dated 2013).

This experiment addresses T1, human HSL (Homo sapiens, UniProt Q05469).
T1 construct: overlapping PCR to generate a full length human HSL ORF with a 3′-His6 tag; His6 (C); made in house; host or cells: High 5 insect cells (baculovirus, pFast-BAC)
T1 sequence (Q05469 1-1076): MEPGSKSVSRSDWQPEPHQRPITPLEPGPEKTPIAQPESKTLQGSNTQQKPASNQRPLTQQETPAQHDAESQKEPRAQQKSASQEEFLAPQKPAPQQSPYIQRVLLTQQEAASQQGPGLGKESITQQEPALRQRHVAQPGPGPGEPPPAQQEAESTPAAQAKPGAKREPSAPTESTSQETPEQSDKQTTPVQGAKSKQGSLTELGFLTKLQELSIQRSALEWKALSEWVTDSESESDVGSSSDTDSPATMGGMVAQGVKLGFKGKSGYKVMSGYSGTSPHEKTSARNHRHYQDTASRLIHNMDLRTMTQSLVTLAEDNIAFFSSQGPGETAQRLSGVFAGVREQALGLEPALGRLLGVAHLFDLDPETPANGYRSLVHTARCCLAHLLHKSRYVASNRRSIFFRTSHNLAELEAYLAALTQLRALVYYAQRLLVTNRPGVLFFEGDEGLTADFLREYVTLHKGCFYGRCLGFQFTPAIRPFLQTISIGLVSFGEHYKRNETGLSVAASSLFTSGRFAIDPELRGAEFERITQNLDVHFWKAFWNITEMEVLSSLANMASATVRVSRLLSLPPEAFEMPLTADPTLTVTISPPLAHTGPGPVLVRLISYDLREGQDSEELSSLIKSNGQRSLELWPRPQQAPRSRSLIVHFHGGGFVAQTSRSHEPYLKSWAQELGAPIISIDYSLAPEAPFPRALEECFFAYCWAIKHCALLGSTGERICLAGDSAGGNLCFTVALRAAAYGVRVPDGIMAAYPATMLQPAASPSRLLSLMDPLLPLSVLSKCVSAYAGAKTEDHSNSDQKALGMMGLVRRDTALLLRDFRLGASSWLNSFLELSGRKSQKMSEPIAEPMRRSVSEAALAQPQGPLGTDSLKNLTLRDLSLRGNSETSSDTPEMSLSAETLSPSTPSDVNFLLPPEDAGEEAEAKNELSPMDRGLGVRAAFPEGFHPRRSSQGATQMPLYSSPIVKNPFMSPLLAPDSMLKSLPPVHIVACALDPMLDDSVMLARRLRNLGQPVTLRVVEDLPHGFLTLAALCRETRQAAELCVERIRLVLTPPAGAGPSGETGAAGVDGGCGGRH
As to the kind of experiment: Human Hormone-Sensitive Lipase (HSL) enzyme inhibition assay (colorimetric, DMPT substrate). The format is biochemical. The note with it: human full length HSL-His6, 2,3-dimercapto-1-propanol tributyrate substrate, 37° C. 20 minutes, absorbance at 405 nm; read-out: HSL hum IC50. As to the method:
1) Cloning: cDNA was prepared from commercial human brain polyA+ RNA and used as a template in overlapping PCR to generate a full length human HSL ORF with a 3′-His6 tag. This full length insert was cloned into the pFast-BAC vector and the DNA-sequence of several single clones was verified. DNA from a correct full length clone with the 3′His6 tag was used to transform the E. coli strain DH10BAC. Resulting bacmid DNA was used to generate a titered baculovirus stock for protein generation.
Cells were thawed. […] was done at 3×30 sec., Lubrol PX was added to 0.2% final concentration followed by stirring for 15 min. at 4° C. and centrifugation at 25 k×g, 60 min., 4° C. […] Supernatant was removed, the resin washed in the centrifuge vessel using 5 volumes of Base Buffer containing 0.2% Lubrol PX. Centrifugation was done again, then the supernatant discarded. The resin was poured onto a 0.8 μm membrane in a disposable filter unit (Nalge 450-0080), and washed with 5 volumes of Base Buffer containing 0.2% Lubrol PX. It was then washed with 30 volumes of Base Buffer containing 60 mM imidazole pH 7.5 at 4° C. The protein was eluated with 5 volumes of 25 mM Tris-Cl, 300 mM NaCl, 200 mM imidazole, 10 mM 2-mercaptoethanol, pH 7.5 at 4° C. by tumbling resin with buffer end-over-end, 30 min., 4° C. The resin was captured on a 0.2 μm membrane disposable filter unit (Millipore SCGP U02 RE) and the eluate collected in the reservoir. The eluate was concentrated using a 30 k MWCO centrifugal filter device (Sartorius Vivascience Vivacell 100, VC1022), to 20 ml. It was then dialyzed overnight at 4° C., two times against 2 L of 10% glycerol, 25 mM Tris-Cl, 300 mM NaCl, 0.2 mM EDTA, 0.2 mM DTT, pH 7.5 at 4° C. The protein was filtered using a 0.22 μm disposable filter unit (Millipore SCGP00525). The protein concentration was calculated from absorbance at 280 nm, using 280=0.67 cm-1 mg-1. […] The protein was stored at −80° C.
Human Hormone-Sensitive Lipase (HSL) Enzyme Inhibition Assay:
HSL enzyme activity was measured by a colorimetric assay using 2,3-dimercapto-1-propanol tributyrate (Aldrich, St. Louis, Mo.) as a substrate. Typically, 1.5 mM 2,3-dimercapto-1-propanol tributyrate (DMPT) in 100 mM MOPS, pH 7.2, 0.2 mg/ml fatty acid-free BSA was prepared by sonication at 4° C. to homogenous suspension. Test compounds (2 mM stock in DMSO) were diluted 3 fold in series in DMSO. Compound solutions were diluted 24 fold in 1.5 mM DMPT containing solution and 18 ul per well was added to 384-well microplates (Corning Costar). Twelve microliters per well of human HSL (15 ug/ml) was added and the reaction mixture was incubated at 37° C. for 20 minutes. Six microliters of 12 mM dithio-bis-(2-nitrobenzoic acid) (DTNB) in DMSO plus 1.2% SDS and 0.6% Triton X-100 were added and the mixture was incubated at room temperature for 15 minutes. Product production was monitored by reading absorbance at 405 nm on an Envision Reader (PerkinElmer Life and Analytical Sciences, Shelton, Conn.).
Regarding `O=C1N(c2ccc(C3CC3)cc2)CCC12CCN(C[C@@H](O)c1ccccc1)CC2` [Example 32, 2-(4-Cyclopropyl-phenyl)-8-((S)-2-hydroxy-2-phenyl-ethyl)-2,8-diaza-spiro[4.5]decan-1-one], the IC50 stood at 0.09 µM.

In the case of `O=C1N(c2ccc(CC(F)(F)F)cc2)CCC12CCN(CC(O)c1c(F)cccc1Cl)CC2` (stereo not shown) [Example 50, 8-[2-(2-Chloro-6-fluoro-phenyl)-2-hydroxy-ethyl]-2-[4-(2,2,2-trifluoro-ethyl)-phenyl]-2,8-diaza-spiro[4.5]decan-1-one], the IC50 was 0.018 µM.

Consider `C[C@H](Oc1ccc(N2CCC3(CCN(CC(O)c4c(F)cccc4Cl)CC3)C2=O)cc1)C(F)(F)F` (stereo partly drawn) [Example 54, 8-[2-(2-Chloro-6-fluoro-phenyl)-2-hydroxy-ethyl]-2-[4-((S)-2,2,2-trifluoro-1-methyl-ethoxy)-phenyl]-2,8-diaza-spiro[4.5]decan-1-one], for which the IC50 came to 0.029 µM.

On to `CCc1ccc(N2CCC3(CCN(CC(=O)c4ccc(Cl)cc4Cl)CC3)C2=O)cc1` [Example 43, 8-[2-(2,4-Dichloro-phenyl)-2-oxo-ethyl]-2-(4-ethyl-phenyl)-2,8-diaza-spiro[4.5]decan-1-one], for which the IC50 worked out at 0.036 µM.

On to `CN(C(=O)CN1CCC2(CC1)CCN(c1ccc(C3CC3)cc1)C2=O)C1CCCCC1` [Example 16, N-Cyclohexyl-2-[2-(4-cyclopropyl-phenyl)-1-oxo-2,8-diaza-spiro[4.5]dec-8-yl]-N-methyl-acetamide], for which the IC50 came to 0.06 µM.

Turning to `O=C1N(c2ccc(C3CC3)cc2)CCC12CCN(CC(O)c1ccc(Cl)cc1)CC2` (stereo not shown) [Example 24, 8-[2-(4-Chloro-phenyl)-2-hydroxy-ethyl]-2-(4-cyclopropyl-phenyl)-2,8-diaza-spiro[4.5]decan-1-one], the IC50 came out at 0.08 µM.

For `CC(c1ccccc1)N1CCC2(CCN(c3ccc(C4CC4)cc3)C2=O)CC1` (stereo not shown) [Example 4, 2-(4-Cyclopropyl-phenyl)-8-(1-phenyl-ethyl)-2,8-diaza-spiro[4.5]decan-1-one], the IC50 was determined as 0.03 µM.

On to `CCC(C(=O)Nc1ccc(F)cc1)N1CCC2(CCN(c3ccc(C4CC4)cc3)C2=O)CC1` (stereo not shown) [Example 26, 2-[2-(4-Cyclopropyl-phenyl)-1-oxo-2,8-diaza-spiro[4.5]dec-8-yl]-N-(4-fluoro-phenyl)-butyramide], for which the IC50 is 0.05 µM.

With `C[C@H](Oc1ccc(N2CCC3(CCN(CC(O)c4ccc(Cl)cc4Cl)CC3)C2=O)cn1)C(F)(F)F` (stereo partly drawn) [Example 53, 8-[2-(2,4-Dichloro-phenyl)-2-hydroxy-ethyl]-2-[6-((S)-2,2,2-trifluoro-1-methyl-ethoxy)-pyridin-3-yl]-2,8-diaza-spiro[4.5]decan-1-one], the IC50 came to 0.043 µM.

Regarding `C[C@@H](Oc1ccc(N2CCC3(CCN(CC(O)c4ccc(Cl)cc4Cl)CC3)C2=O)cn1)C(F)(F)F` (stereo partly drawn) [Example 45, 8-[2-(2,4-Dichloro-phenyl)-2-hydroxy-ethyl]-2-[6-((R)-2,2,2-trifluoro-1-methyl-ethoxy)-pyridin-3-yl]-2,8-diaza-spiro[4.5]decan-1-one], the IC50 was 0.022 µM.

For `C[C@@H](Oc1ccc(N2CCC3(CCN(CC(O)c4ccc(Cl)cc4Cl)CC3)C2=O)cc1)C(F)(F)F` (stereo partly drawn) [Example 51, 8-[2-(2,4-Dichloro-phenyl)-2-hydroxy-ethyl]-2-[4-((R)-2,2,2-trifluoro-1-methyl-ethoxy)-phenyl]-2,8-diaza-spiro[4.5]decan-1-one], the IC50 was 0.022 µM.

Regarding `COCCCNC(=O)CN1CCC2(CC1)CCN(c1ccc(C3CC3)cc1)C2=O` [Example 17, 2-[2-(4-Cyclopropyl-phenyl)-1-oxo-2,8-diaza-spiro[4.5]dec-8-yl]-N-(3-methoxy-propyl)-acetamide], the IC50 is 0.71 µM.

In the case of `O=C1N(c2ccc(C3CC3)cc2)CCC12CCN(C[C@H](O)c1ccccc1)CC2` [Example 33, 2-(4-Cyclopropyl-phenyl)-8-((R)-2-hydroxy-2-phenyl-ethyl)-2,8-diaza-spiro[4.5]decan-1-one], the IC50 is 0.04 µM.

One may read the IC50 as the concentration that gives 50% inhibition.
